Read-outs that look alike come from different tables or passages of the source. Where a SMILES comes first, the peptide text is derived from it. The star is where a group is joined. Palmitoyl = CCCCCCCCCCCCCCCC(=O)*
Tests used:
[1] = tested on: HIV-1 NL4-3 gp41 I69V pseudovirus; type: cell-based; settings: for Fold change in IC50: I69V relative to WT NL4-3
[2] = tested on: NL4-3D36G virus; settings: single infection inhibition experiment; cited from earlier work
Description: However, it requires frequent and high doses (90 mg, twice a day), and resistance is easily acquired. The TRM of the T20 carboxy-terminal, also known as the MPER (membrane proximal external region), is rich in […] sequences ([…]). Therefore, it is highly hydrophobic (Figure 1).

[3] = tested on: HIV-1 NL4-3; test: In vitro selection of resistant virus, dose-escalating passages in C8166 cells; type: cell-based; settings: 1.5- to 2-fold increase per passage, start 0.5 µM T20, 0.04 µM LP-40
Description: To determine the resistance profile of LP-40, LP-40-resistant variants were selected using a dose-escalating method. The selection for drug-resistant HIV-1NL4-3 commenced with a concentration of 0.04 µM LP-40 (Figure 2B). Finally, after 32 passages, the induced concentration of LP-40 reached 200 µM. […] As shown in passage 9 (P-9), the concentration of LP-40 was 0.3 µM, and it can be observed that isoleucine was replaced by threonine at position 37 in the gp41 NHR coding region (I37T). G86D and C87Y were observed; at position 119 (E 119 G) in the gp41 CHR coding region, glutamate was replaced by glycine; at position 126 (N 126 K), asparagine was replaced by lysine. In P-24, the concentration of LP-40 was 8 µM; I37T in the NHR coding region was still present, and A15V, A21T, and L57H were also present, and N126K at position 126 in the CHR coding region was still present. In P-26, the concentration of LP-40 was 20 µM; at L33S, position 33 in the NHR coding region, leucine was replaced by serine and I37T remained. Additionally, a combination of mutations—E109N, N113D, E119Q, D121E, N125E, S129D, H132Y, and S133N (abbreviated as […])—appeared in the coding region of CHR. At a concentration of 200 µM, in addition to L33S and I37T, D36G, V38A, V38T, N42T, and I69V appeared in the NHR coding region, and a combination of the above eight mutations still existed in the CHR coding region. […]

[4] = tested on: LP40-V2 pseudovirus (HIV-1 NL4-3 Env mutant); type: cell-based

CCCCCCCCCCCCCCCC(=O)NCCCC[C@H](NC(=O)[C@H](CC(=O)O)NC(=O)[C@H](CC(C)C)NC(=O)[C@H](CCC(=O)O)NC(=O)[C@H](CC(C)C)NC(=O)[C@H](CC(C)C)NC(=O)[C@H](CCC(=O)O)NC(=O)[C@H](CCC(N)=O)NC(=O)[C@H](CCC(=O)O)NC(=O)[C@H](CC(N)=O)NC(=O)[C@H](CCCCN)NC(=O)[C@H](CCC(=O)O)NC(=O)[C@H](CCC(N)=O)NC(=O)[C@H](CCC(N)=O)NC(=O)[C@H](CC(N)=O)NC(=O)[C@H](CCC(N)=O)NC(=O)[C@H](CO)NC(=O)[C@H](CCC(=O)O)NC(=O)[C@H](CCC(=O)O)NC(=O)[C@@H](NC(=O)[C@H](CC(C)C)NC(=O)[C@H](CO)NC(=O)[C@H](Cc1c[nH]cn1)NC(=O)[C@@H](NC(=O)[C@H](CC(C)C)NC(=O)[C@H](CO)NC(=O)[C@@H](NC(=O)[C@H](Cc1ccc(O)cc1)NC(C)=O)[C@@H](C)O)[C@@H](C)CC)[C@@H](C)CC)C(N)=O [LP-40] (Ac-YTSLIHSLIEESQNQQEKNEQELLELDK(Palmitoyl)-NH2)
Fold change in IC50 ([1]; Table 2): 0.93 fold
Fold change in IC50 ([1]; Table 3): 1.08 fold
IC50 ([1]; I69V, Table 2, TZM-bl cells, 48 h, luciferase, mean ± SD, triplicate, repeated three times): 29.4 ± 4.59 nM
Improvement of antiviral IC50 compared to T20 [2]: approximately seven-fold
Induced inhibitor concentration reached after 32 passages [3]: 200 µM
IC50 ([4]; LP40-V2 (Env selected at LP-40 0.3 µM), TZM-bl cells, 48 h, luciferase, mean ± SD, triplicate, repeated three times): 374 ± 29.8 nM
Fold change in IC50 ([4]; LP40-V2 relative to WT NL4-3, Table 1): 12.59 fold

— paper PMC9223764, “In Vitro Selection and Characterization of HIV-1 Variants with Increased Resistance to LP-40, Enfuvirtide-Based Lipopeptide Inhibitor” (International Journal of Molecular Sciences, 2022)
